Data published in PMC9704608, “Anti-leishmanial physalins—Phytochemical investigation, in vitro evaluation against clinical and MIL-resistant L. tropica strains and in silico studies” (PLOS ONE, 2022).
In brackets after ≈: the same amount, converted by molar mass. Like-named read-outs stand apart in the source and are kept apart here.

Key:
[1] = system: BJ (human fibroblast) cells; assay: Cytotoxicity (MTT) against BJ cell line; type: cell-based; details: cytotoxicity of extracts and fractions, read-out: BJ (human fibroblast) IC50 (μg/ml ± SD)
[2] = system: 3T3 (mouse fibroblast) cells; assay: Cytotoxicity (MTT) against 3T3 cell line; type: cell-based; details: cytotoxicity of extracts and fractions, read-out: 3T3 (mouse fibroblast) IC50 (μg/ml ± SD)
[3] = system: MIL-resistant L. tropica promastigotes; assay: Growth inhibition assay (MTT) against MIL-resistant line; type: cell-based, Leishmania tropica; details: miltefosine-unresponsive strain, promastigotes, 72 h
Experimental: (§1) The promastigotes in their log phase were used in 96-well plates. 1 × 10^6 wild-type and resistant promastigotes were dispensed in 96 96-well plates, and incubated with tested compounds at a range concentration of 200–10 μM at 27°C for 72 h. After incubation of 72 h, MTT dye (3-(4,5-dimethylthiazol-2-yl)-2,5-diphenyl-2H-tetrazolium bromide) was added and further incubate it for 3–4 h. Amphotericin B, pantamidine and miltefosine were used as the positive control, untreated promastigotes were used as negative control moreover DMSO control was also added in the study as a stock solution of the compounds that were prepared in DMSO. All the experiments were performed in triplicates. After completion of the experiment the absorbance by Multiskan ascent plate reader at 452 nm and percent inhibition was calculated by the following formula.
(§2) Cytotoxic concentration (%) = [100- (Absorbance of test)/ (Absorbance of solvent control) ×100] %.
Promastigote cultures tL. tropica (Clinical isolates) were maintained at 26°C in RPMI-1640 medium containing 15% FBS and 1% penicillin–streptomycin mixture.
Generation of miltefosine-unresponsive strain was carried under high MIL pressure by in vitro passage with a stepwise increase in the MIL concentration. At each step, parasites were cultured and passaged every 3–4 days at an initial concentration of 5x10^5 promastigotes/mL in order to achieve -stable growth as compared to the wildtype isolate. Growth rates were measured for resistant populations and compared with the WT strain. Parasites were counted at an initial concentration of 5x10^5 parasites/mL and growth was measured daily using a Neubauer chamber until the population reached the stationary phase. Furthermore, the fluorescence microscopic investigations via DAPI stain were also carried out to supplement the study.

L. major promastigotes = assay: Promastigote growth inhibition assay (MTT), L. major; type: cell-based, Leishmania major; details: for IC50: Leishmania major, 72 h, read-out: L. major IC50 (μM± SD)
Experimental: (§3) L. major and L. tropica (Clinical isolates) promastigotes were grown at […] in RPMI-1640 (Sigma) medium containing 10% of heat-inactivated (56°C for 30 min) fetal bovine serum. Cell viability was initially evaluated by wet mount method by observing the live cells under compound microscope. Parasite growth was assessed by counting live / motile promastigotes in a Neubauer chamber. Viable cell count was used for the further experimentations (treatments).
as §1, §2

[4] = Cytotoxicity (MTT) against 3T3 cell line; type: cell-based, mouse; details: pure compounds; mouse fibroblast, 48 h; read-out: 3T3 Cell line CC50 (μM± SD)
Experimental: (§4) The cytotoxicity of the test compounds against normal cell lines was evaluated through MTT (3-[4, 5-dimethylthiazole-2-yl]-2, 5-diphenyl-tetrazolium bromide] colorimetric assay in 96-well flat-bottomed microplates. The 3T3 (mouse fibroblast) and BJ (human fibroblast) were cultured Dulbecco’s Modified Eagle Medium, supplemented with 5% of fetal bovine serum (FBS), 100 IU/mL of penicillin and 100 μg/mL of streptomycin in 75 cm2 flasks, and then incubated in 5% CO2 incubator at 37°C. The growing cells were counted by using a haemocytometer, and diluted with the particular medium. The 5x10^4 cells/mL of the cell culture was prepared, and a sample […] was introduced into each well. The medium was removed after overnight incubation, and 200 μL of fresh medium was added with different concentrations of compounds (1–30 μM). After 48 hours, 200 μL MTT (0.5 mg/mL) was added, and the incubation was further continued for 4 hrs. After that time, 100 μL of DMSO was added to each well. The absorbance was measured using a micro plate reader (Spectra Max Plus, Molecular Devices, CA, USA) at 570 nm for the extent of MTT reduction to formazan within the cells. The cytotoxicity was recorded as CC50 against cells by using Soft- Max Pro software. Doxorubicin and cycloheximide were used as positive control. The experiments were run in triplicate.

[5] = system: 3T3 (mouse fibroblast) cells; assay: Cytotoxicity (MTT) against 3T3 cell line; type: cell-based; details: for IC50: Mus musculus, Fibroblast, read-out: 3T3 (mouse fibroblast) IC50 (μM ± SD)
Experimental: as §4

L. tropica promastigotes = assay: Promastigote growth inhibition assay (MTT), L. tropica clinical isolates; type: cell-based, Leishmania tropica; details: for IC50: Leishmania tropica, 72 h, read-out: L. tropica IC50 (μM± SD)
Experimental: as §3, §1, §2

[6] = Cytotoxicity (MTT) against BJ cell line; type: cell-based, human; details: pure compounds; human fibroblast, 48 h; read-out: BJ cell line CC50 (μM± SD)
Experimental: as §4, with “The medium was removed after overnight incubation, and 200 μL of fresh medium was added with different concentrations of compounds (1–30 μM).” left out

[7] = system: BJ (human fibroblast) cells; assay: Cytotoxicity (MTT) against BJ cell line; type: cell-based; details: for L. tropica SI (CC50/ IC50): CC50 BJ cell line / IC50 L. tropica; for IC50: Homo sapiens, Fibroblast, read-out: BJ (human fibroblast) IC50 (μM± SD)
Experimental: as §4, with “The medium was removed after overnight incubation, and 200 μL of fresh medium was added with different concentrations of compounds (1–30 μM).” left out

[8] = CC50 3T3 mouse fibroblast cell line / IC50 L. major
[9] = CC50 BJ fibroblast cell line / IC50 L. major
[10] = CC50 BJ fibroblast cell line / IC50 L. tropica

With `COc1cccc2c1C(=O)c1c(O)c3c(c(O)c1C2=O)C[C@@](O)(C(=O)CO)C[C@@H]3O[C@H]1C[C@H](N)[C@H](O)[C@H](C)O1` [Doxorubicin] the IC50 [1] was 0.1 ± 0.02 µg/mL (≈ 0.184 µM) and the IC50 [2] was 0.1 ± 0.02 µg/mL (≈ 0.184 µM).
In the case of `CC12CC3OC(=O)C1COC14OC5(C2C1=O)C(O)(CCC1C4CC(O)C2(Cl)CC=CC(=O)C12C)C(=O)OC35C` (stereo not drawn) [Compound 5, Physalin H], the “MIL Resistant L. tropica IC50 (μM± SD)” value [3] is reported as “inactive”, the “L. major SI (CC50/ IC50)” value (L. major promastigotes; [8]) is reported as 0.119 and the “L. major SI (CC50/ IC50)” value (L. major promastigotes; [9]) is reported as 3.11. The IC50 (L. major promastigotes; pure compounds, standard drugs, promastigotes) was 3.34 ± 0.64 µM, the CC50 [4] was 0.4 ± 0.07 µM and the “L. tropica SI (CC50/ IC50)” value ([5]; CC50 3T3 cell line / IC50 L. tropica) was 0.041. The IC50 ([5]; cytotoxicity of compounds 1-9) was 0.4 ± 0.07 µM, the “L. tropica SI (CC50/ IC50)” value (L. tropica promastigotes; CC50 3T3 mouse fibroblast cell line / IC50 L. tropica) was 0.041 and the “L. tropica SI (CC50/ IC50)” value (L. tropica promastigotes; [10]) was 1.08. The IC50 (L. tropica promastigotes; pure compounds, standard drugs, promastigotes, clinical isolate) was 9.59 ± 0.27 µM, the CC50 [6] was 10.4 ± 1 µM and the “L. tropica SI (CC50/ IC50)” value [7] was 1.08. For the same molecule, the IC50 ([7]; cytotoxicity of compounds 1-9) was 14.2 ± 0.8 µM.
For `C[C@]12C(=O)C=CCC1=CC[C@@H]1[C@@H]2CC[C@]2(O)C(=O)O[C@@]3(C)[C@H]4C[C@]5(C)[C@@H](CO[C@@]16O[C@@]32[C@H]5C6=O)C(=O)O4` [Compound 2, Physalin B], the “MIL Resistant L. tropica IC50 (μM± SD)” value [3] was “inactive”, the “L. major SI (CC50/ IC50)” value (L. major promastigotes; [8]) was 3.28 and the “L. major SI (CC50/ IC50)” value (L. major promastigotes; [9]) was 3.5. The IC50 (L. major promastigotes) was 3.04 ± 1.12 µM, the CC50 at 48 h [4] was 10 ± 0.4 µM and the IC50 [5] was 10 ± 0.4 µM. For the same molecule, the “L. tropica SI (CC50/ IC50)” value (L. tropica promastigotes; [10]) was 0.8, the IC50 (L. tropica promastigotes) was 13.33 ± 0.098 µM and the CC50 at 48 h [6] was 10.8 ± 1.5 µM. For the same molecule, the “L. major SI (CC50/ IC50)” value ([7]; CC50 BJ cell line / IC50 L. major) was 3.5, the “L. tropica SI (CC50/ IC50)” value [7] was 0.8 and the IC50 [7] was 27.6 ± 0.9 µM.
